Results: patent US5302590A, “Compounds useful as dual antagonists of platelet activating factor and leukotriene D4” (Hoffmann-La Roche Inc., priority 1992, dated 1994)
Like-named read-outs stand apart in the source and are kept apart here.

Experiments:
[1] = system: leukotriene D4 (LTD4); test: Leukotriene-induced bronchoconstriction in guinea pigs, in vivo leukotriene D4 (LTD) antagonist test; parameters: species or system guinea pig (Hartley strain); conditions: for ED50: Cavia porcellus, read-out: LTD4-induced bronchoconstriction ID50
Procedure: Male guinea pigs (Hartley strain Charles River) weighing 300-500 g were anesthetized with urethane (~2 g/kg) intraperitoneally and a polyethylene cannula was inserted into the jugular vein for intravenous drug administration. Tracheal pressure (cm of H2 O) was recorded from a Statham pressure transducer (P 32 AA). Propranolol was administered 5 minutes prior to challenge with LTD. Two minutes later spontaneous breathing was arrested with succinylcholine chloride (1.2 mg/kg) administered intravenously, and the animals were ventilated with a Harvard (Model #680) small animal respirator set at 40 breaths/min and 4.0 cc stroke volume. Control vehicle or test drug was administered through the cannula into the jugular vein 1 minute before the animals were challenged intravenously with a maximum constrictory dose of LTD (25 μg/kg) given intravenously. The change in tracheal pressure was averaged for control and drug-treated animals and percent inhibition was calculated. For determination of oral activity, animals were dosed with test compound or vehicle two hours prior to challenge with LTD (25 μg/kg, i.v.).
(§1) The relative potency (ID50 values) of test compounds administered by the intravenous and oral route was determined by administering increasing doses of test compound. For determination of the time course of inhibition for various compounds, the time between administration of compound and challenge with LTD was varied. The time course of activity was calculated as the time when inhibition decreased to 40%.
(§2) The compounds listed below were evaluated for antagonist activity against bronchoconstriction induced by PAF or LTD4. Comparative data for a known LTD4 antagonist (Compound B) and a known PAF antagonist (Compound A) are also shown.
(§3) Compounds C, D and E were administered orally at a dose of 10 mg/kg.

[2] = system: platelet activating factor (PAF); test: PAF Induced Bronchoconstriction Assay; type: in vivo, guinea pig; conditions: for ED50: Cavia porcellus, Platelet, read-out: PAF-induced bronchoconstriction ID50; for antagonist activity against bronchoconstriction induced by PAF or LTD4: administered IV, statement covers both PAF and LTD4; for PAF-induced bronchoconstriction, percent inhibition: 10 mg/kg
Procedure: as §1
Male animals (Hartlet Strain, 400-500 g were anesthetized with urethane (2 g/kg, i.p.). Each animals' trachea was cannulated and the guinea pigs were respirated using a Harvard small animal rodent respirator (3.0 cc stroke volume, 40 breaths per min.). Tracheal pressure was recorded from a cannula inserted in the trachea and connected to a Statham pressure transducer.
The jugular vein was cannulated for administering compounds. Spontaneous breathing was arrested with succinylcholine (1.2 mg/kg, i.v.) administered 2 minutes prior to intravenous injection of platelet activating factor PAF).
For the intravenous testing, the guinea pig is given a 1-minute pretreatment with propranolol at a dose of 0.1 mg/kg intravenously. The test compound is administered with a 1 minute pretreatment prior to intravenous challenge with PAF. The animal is then challenged with a 1 μg/kg intravenous dose of PAF and the change in tracheal pressure is measured.
For the oral testing, the procedure includes a 2-hour pretreatment period with the test compound administered through an oral gavage tube. Propranolol or succinylcholine and PAF are administered intravenously, and the change in tracheal pressure measured.
The change in tracheal pressure is determined by subtracting the steady state baseline achieved after administration of succinylcholine from the peak bronchoconstriction seen after challenge with PAF. The mean is calculated for each test compound and compared to the mean of the control animals to give the percent inhibition of bronchoconstriction. The standard error is calculated as the standard error of the mean.
as §2, §3

[3] = 1 min, iv, 1 minute pretreatment, PAF 1 μg/kg i.v.
[4] = 1 min, iv, 1 minute before LTD 25 μg/kg i.v.
[5] = po, 10 mg/kg, two hours prior to LTD 25 μg/kg i.v.

Structure (SMILES)	LTD4-induced bronchoconstriction ID50 ([1]; iv, 1 minute before LTD 25 μg/kg i.v.)	LTD4-induced bronchoconstriction ID50 ([1]; po, two hours prior to LTD 25 μg/kg i.v.)	ED50 [2, 3]	ED50 ([2]; po, 2-hour pretreatment)	ED50 [1, 4]	ED50 ([1]; 2 h, po, two hours prior to LTD 25 μg/kg i.v.)	PAF-induced bronchoconstriction ID50 ([2]; iv, 1 minute pretreatment, PAF 1 μg/kg i.v.)	PAF-induced bronchoconstriction ID50 ([2]; po, 2-hour pretreatment)	LTD4-induced bronchoconstriction, percent inhibition [1, 5]	antagonist activity against bronchoconstriction induced by PAF or LTD4 [2]	PAF-induced bronchoconstriction, percent inhibition ([2]; po, 2-hour pretreatment)	LTD4-induced bronchoconstriction, percent inhibition ([1]; iv column, iv dose not given)
Cc1nnc2n1-c1sc(C#CCn3c(=O)c4ccccc4c4ccccc43)cc1C(c1ccccc1Cl)=NC2 [Compound A, 5-{3-[4-(2-Chlorophenyl)-9-methyl-6H-thieno[3,2f][1,2,4]triazolo[4,3-a][1,4]diazepin-2-yl]-2-propynyl}phenanthridin-6(5H)-one, reference compound]	Not Active	Not Active	0.02 mg/kg	0.12 mg/kg								
CCC(CC)(CC(=O)Nc1cccc(/C=C/c2nc(C3CCC3)cs2)c1)C(=O)O [Compound B, (E)-4-[3-[2-(4-Cyclobutyl-2-thiazolyl)ethenyl]phenylamino]2,2-diethyl-4-oxobutanoic acid, reference compound]					0.13 mg/kg	0.12 mg/kg	Not Active	Not Active				
Cc1nnc2n1-c1sc(CCc3ccc(CC(=O)Nc4cccc(/C=C/c5nc(C6CCC6)cs5)c4)c(C(=O)O)c3)cc1C(c1ccccc1Cl)=NC2.O [Compound C, (E)-5-[2-[4-(2-chlorophenyl)-9-methyl-6H-thieno-[3,2-f][1,2,4]triazolo[4,3-a][1,4]diazepin-2-yl]ethyl]-2-[2-[3-[2-(4-cyclobutyl-2-thiazolyl)ethenyl]phenylamino]-2-oxoethyl]-benzoic acid monohydrate]			0.02 mg/kg		0.01 mg/kg				48 ± 8%	very potent dual acting antagonists	37 ± 1%	
C=CCNC(=O)c1cc(CCc2cc3c(s2)-n2c(C)nnc2CN=C3c2ccccc2Cl)ccc1CC(=O)Nc1cccc(/C=C/c2nc(C3CCC3)cs2)c1 [Compound D, (E)-4-[2-[4-(2-Chlorophenyl)-9-methyl-6H-thieno-[3,2-f][1,2,4]triazolo[4,3-a][1,4]diazepin-2-yl]ethyl]-N-[3-[2-(4-cyclobutyl-2-thiazolyl)ethenyl]phenyl]-2-[(2-propenylamino)-carbonyl]benzeneacetamide]			0.02 mg/kg		0.08 mg/kg				44 ± 15%	very potent dual acting antagonists	65 ± 1%	
CCOC(=O)c1cc(CCc2cc3c(s2)-n2c(C)nnc2CN=C3c2ccccc2Cl)ccc1CC(=O)Nc1cccc(/C=C/c2nc(C3CCC3)cs2)c1 [Compound E, (E)-5-[2-[4-(2-Chlorophenyl)-9-methyl-6H-thieno-[3,2-f][1,2,4]triazolo[4,3-a][1,4]diazepin-2-yl]ethyl]-2-[2-[3-[2-(4-cyclobutyl-2-thiazolyl)ethenyl]phenylamino]-2-oxoethyl]-benzoic acid ethyl ester]			0.02 mg/kg								14 ± 9%	46 ± 7%
